According to patent publication US20220016048A1, “CANNABIDIOL-TYPE CANNABINOID COMPOUND” (GW Research Limited, priority 2018, published 2022):
“Also recorded” adds a separate entry of the source.

Legend:
[1] = Toxicokinetic evaluation in embryo-foetal development study; type: in vivo, rat
Experimental: Three groups of 20 time-mated female Wistar (Han) rats were given CBD-C4 once daily by the oral (gavage) route from Day 6 to Day 17 of gestation at dose levels of 1, 10 or 100 mg/kg/day (at a constant dose volume of 5 mL/kg), to cover the period of organogenesis.
Blood samples were taken for toxicokinetic evaluation at pre-dose, 1, 2, 4, 6 and 24 hours after dosing on Days 6 and 17 of gestation. Clinical observations, body weight and food consumption were recorded. On Day 21 of gestation (GD 21) the females were euthanised, and the progress and outcome of pregnancy was evaluated.

mouse model of seizure = assay: maximal electroshock (MES) test in the mouse; type: in vivo; conditions: for decrease in the number of mice showing tonic convulsions, as compared with vehicle controls: p<0.001
Experimental: Mice were administered MES (50 mA, rectangular current: 0.6 ms pulse width, 0.4 s duration, 50 Hz) via corneal electrodes connected to a constant current shock generator (Ugo Basile: type 7801). The number of tonic convulsions was recorded.
Twelve mice were studied per group. The test was performed blind.
The test substance, CBD-C4, was evaluated at 5 doses (3, 10, 30, 100 and 200 mg/kg), administered i.p. 60 minutes before MES, and compared with a vehicle control group (administered under the same experimental conditions).
Diazepam (2 mg/kg i.p.), administered i.p. 30 minutes before MES, was used as a reference substance and was compared with a vehicle group (administered i.p. 60 minutes before MES).
Data was analysed by comparing treated groups with the appropriate vehicle control using Fisher's Exact Probability tests.

DNA damage in the liver = assay: Alkaline Comet assay; type: in vivo, rat
Experimental: CBD-C4 was tested for its potential to induce micronuclei (MN) in the polychromatic erythrocytes (PCE) of the bone marrow of treated rats to induce DNA damage in the liver of the same animals.
CBD-C4 was administered at a dose of 125, 250 and 500 mg/kg/day during this study. Vehicle and a positive control of ethyl methanesulfonate (EMS) at a dose of 150 mg/kg/day were tested alongside the CBD-C4.
A range finding study was performed on 9 male young adult out-bred Sprague Dawley rats justifying the chosen dose levels of CBD-C4 used during the study.
Animals were allocated into groups of six with the exception of the positive control which comprised three animals.
Rats were dosed by oral gavage with test article suspended in sesame oil, vehicle (sesame oil) or positive control.
Blood samples were taken for bioanalysis and tissue samples were removed from animals at necropsy from the liver and femur.
Bone marrow sampling, micronucleus slide preparation and comet cell suspensions were undertaken to determine level of toxicity of CBD-C4.

rats = assay: 13-week oral toxicity study in rats; type: in vivo, rat
Experimental: (§1) The objective of the study was to determine the toxicity of CBD-C4 following daily oral (gavage) administration to the rat for 4 and 13 weeks. The toxicokinetic profile of the CBD-C4 was also assessed.
(§2) Groups of 10 male and 10 female rats were doses at 1, 10 and 100 mg/kg/day for either 4 or 13 weeks.
(§3) Assessment of toxicity of CBD-C4 was based on mortality, clinical observations, post-dose observations, body weights, food consumption, ophthalmic observations, clinical and anatomic pathology.
(§4) Blood samples were collected on days 1 and 28 and week 13 of the study.

[2] = 13-week oral toxicity study in rats; type: in vivo, rat; conditions: both sexes, rat, in vivo
Experimental: as §1, §2, §3, §4

[3] = system: Salmonella typhimurium (TA98, TA100, TA1535, TA1537 and TA102); assay: Ames test; type: cell-based; conditions: absence and presence of S-9
Experimental: The aim of this study was to evaluate the potential mutagenic activity of CBD-C4 by examining its ability to revert five histidine-requiring strains of Salmonella typhimurium in the absence and presence of a rat liver metabolising system (S-9).
Control treatments were performed with 2-nitrofluorene (2NF) at a final concentration of 5 μg/plate; Sodium azide (NaN3) at a final concentration of 2 μg/plate; 9-aminoacridine (AAC) at a final concentration of 50 μg/plate; Mitomycin C (MMC) at a final concentration of 0.2 μg/plate; Benzo[a]pyrene (B[a]P) at a final concentration of 10 μg/plate; and 2-aminoanthracene (AAN) at a final concentration of 5 and 20 μg/plate.
Treatments were carried out both in the absence and presence of S-9 by addition of either buffer solution or 10% S-9 mix respectively.
Five strains of Salmonella typhimurium bacteria (TA98, TA100, TA1535, TA1537 and TA102) were used in this study.
Bacteria were cultured at 37±1° C. for 10 hours in nutrient broth, containing ampicillin or ampicillin and tetracycline as appropriate, to provide bacterial cultures in the range of approximately 10^8 to 10^9 cells/mL, based on cell count data from testing of each strain batch. […]
Following incubation, these plates were examined for evidence of toxicity to the background lawn, and where possible revertant colonies were counted. […]

[4] = 1, 10 or 100 mg/kg/day oral gavage, 4 or 13 weeks

In the case of C=C(C)[C@@H]1CCC(C)=C[C@H]1c1c(O)cc(CCCC)cc1O [CBD-C4, (1′R,2′R)-4-butyl-5′-methyl-2′-(prop-1-en-2-yl)-1′,2′,3′,4′-tetrahydro-[1,1′-biphenyl]-2,6-diol], the “extent of accumulation (exposure after 12 daily doses vs single dose)” value ([1]; 1 mg/kg/day) is reported as “approximately 5 fold”, the “extent of accumulation (exposure after 12 daily doses vs single dose)” value ([1]; 100 mg/kg/day) is reported as ~2 fold and the “time of maximum plasma concentration post dose” value ([1]; GD 6, 1 mg/kg/day oral) is reported as 2 h. The “time of maximum plasma concentration post dose” value ([1]; GD 6, higher dose levels (10, 100 mg/kg/day) oral) was 6 h, the “time of maximum plasma concentration post dose” value ([1]; GD 17, after 12 daily doses, all dose levels) was 4 h and the “plasma levels 24 hours after dosing” value ([1]; both higher dose levels (10, 100 mg/kg/day)) was “quantifiable levels of CBD-C4 remained in plasma”. The “increases in exposure (Cmax and AUC(0-t)) relative to the increase in dose” value ([1]; both sampling occasions (GD 6, GD 17)) was “supra-proportional”, the “time to complete elimination from plasma after dosing” value ([1]; lowest dose level (1 mg/kg/day), both sampling occasions) was ≤ 24 h and the “decrease in the number of mice showing tonic convulsions, as compared with vehicle controls” value (mouse model of seizure; 100 mg/kg i.p. 60 minutes before MES) was −100%. For the same molecule, the “decrease in the number of mice showing tonic convulsions, as compared with vehicle controls” value (mouse model of seizure; 200 mg/kg i.p. 60 minutes before MES) was −100%, the “effect on number of mice showing tonic convulsions” value (mouse model of seizure; lower doses 3, 10 and 30 mg/kg i.p. 60 minutes before MES) was “No effects” and the “% hedgehogs in liver” value (DNA damage in the liver; 125, 250 and 500 mg/kg/day oral gavage) was “no dose-related increase”. The “group mean tail intensity and tail moment” value (DNA damage in the liver; all groups, 125, 250 and 500 mg/kg/day oral gavage) was “comparable with the group mean vehicle control data”, the “DNA damage in the liver (Comet assay)” value (DNA damage in the liver; up to 500 mg/kg/day oral gavage) was “did not induce DNA damage; also recorded: No genotoxicity was observed” and the clinical pathology parameters (rats; [4]) was “no adverse changes”. For the same molecule, the clinical signs (rats; [4]) was “no adverse clinical signs”, the “food consumption, body weight, body weight gains and ophthalmoscopy” value (rats; [4]) was “unaffected” and the test article-related deaths (rats; [4]) was “no test article-related deaths”. For the same molecule, the tolerability (rats; [4]) was “well tolerated”, the liver findings (rats; after 4 and 13 weeks of treatment, predominantly at 100 mg/kg/day, considered non-adverse) was “Large livers with correlating organ weight increase and centrilobular hypertrophy” and the NOAEL at 13 weeks ([2]; 13-week daily oral gavage, rats) was 100 mg/kg/day. For the same molecule, the NOAEL at 13 weeks ([2]; 13-week oral, sesame oil formulation, rats (summary)) was 100 mg/kg, the “increases in revertant numbers vs concurrent vehicle control” value ([3]; 5-5000 μg/plate, all test strains) was “no increases in revertant numbers” and the mutagenic activity ([3]; five strains) was “No genotoxicity was observed; also recorded: no evidence of any CBD-C4 mutagenic activity; also recorded: does not induce mutation”.
